One assay relates to TM00107 PDX tumors. The experiment in a line: TM00107 patient derived xenograft (PDX) breast cancer model, tumor volume. In kind it is in vivo, NOD SCID gamma (NSG) mice. Conditions: intravenous every 4 days, 4 doses. Here is the method:
Efficacy of H1H6958N2-DM1 was also assessed in a patient derived xenograft (PDX) model of breast cancer that may better represent the response in patients. NOD SCID gamma (NSG) mice bearing tumor fragments of the TM00107 PDX breast cancer tumor were sourced from The Jackson Laboratories. The TM00107 PDX model was derived from an ER+/−/PR−/HER2− metastatic breast adenocarcinoma. PRLR expression was confirmed by microarray analysis and immunohistochemistry on tumor sample slides provided by The Jackson Laboratory (data not shown). When tumors were an average volume of ˜400-600 mm^3 (21 days post implantation), mice were randomized into treatment groups (n=7 mice/group) and were administered H1H6958N2-DM1, control ADC, or vehicle control by intravenous injection once weekly for a total of 4 weeks. A separate treatment group was administered paclitaxel by intravenous injection every 4 days for a total of 4 doses.
For orientation: In xenograft studies the graft and the host belong to different species.

The subject of the next assay is HEK293 (293) cells. Put plainly: In vitro cell viability (cell kill) assay, CCK8. In kind it is cell-based, human. Conditions: 293; Table 19. In short, it runs like this:
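Viability of hPRLR-expressing 293, PC3 and MCF7 cells is measured after 3 days with non-cleavable-linker DM1 ADCs (final 500 nM–5 pM). IC50 comes from a four-parameter logistic fit of background-corrected percent-of-untreated values over 10 points.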

The next assay deals with PC3 cells. Put plainly: In vitro cell viability (cell kill) assay, CCK8. In kind it is cell-based, human. Conditions: Table 18. Put shortly:
(§1)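 hPRLR stable lines; anti-PRLR-DM1 ADC (SMCC) or DM1-SMe, 10-pt 500 nM–5 pM, 3 d. CCK8 OD450 final 1-3 h (293/PC3); Hoechst nuclear count imaging (MCF7).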

The subject of the next assay is PC3/hPRLR cells. Put plainly: In vitro cell viability (cell kill) assay, CCK8. In kind it is cell-based, human. The settings on record: Table 18. Put shortly:
as §1

The test system of a further assay is MCF7 (MCF7/ATCC) cells. The experiment in a line: In vitro cell viability (cell kill) assay, nuclear counts. In kind it is cell-based, human. The settings on record: MCF7/ATCC. An excerpt:
(§2) PRLR-overexpressing cells, including HEK293, PC3, MCF7 and NCI-N87, were generated to assess the ability of anti-PRLR conjugated antibodies to reduce cell viability. For comparative purposes, PC3 and T47D cells with overexpressed ErbB2 were also generated, as well as an MCF7 cell line over-expressing both hPRLR and hErbB2. Briefly, Lipofectamine® 2000-mediated transfection methodology was utilized to generate HEK293 cells expressing human PRLR (HEK293/hPRLR) or human ErbB2 (HEK293/hErbB2). Lipofectamine LTX with Plus Reagent was used to generate PC3 cells expressing human PRLR (PC3/hPRLR) or human ErbB2 (PC3/hErbB2). Lentiviral-mediated transduction was utilized to generate MCF7 cells expressing human PRLR (MCF7/hPRLR), NCI-N87 cells expressing human PRLR (NCI-N87/hPRLR), T47D cells over-expressing human ErbB2 (T47D/hErbB2), and MCF7 cells expressing both human PRLR and human ErbB2 (MCF7/hPRLR/hErbB2). All lines were selected for at least two weeks in complete growth media plus appropriate selection reagents. Stably expressing populations were enriched for PRLR expression via FACS using the anti PRLR antibody Control I.
(§3) Next, the ability of anti-PRLR-DM1 antibody-drug conjugates (i.e., anti-PRLR antibodies conjugated to DM1 via a non-cleavable linker [SMCC]) to reduce cell viability was determined using in vitro cell based assays. Cells were seeded in PDL-coated 96 well plates at 1500 to 10000 cells per well in complete growth media and allowed to grow overnight. For cell viability curves, ADCs or free DM1 (as the methyl disulfide derivative DM1-SMe) were added to the cells at final concentrations ranging from 500 nM to 5 pM and incubated for 3 days. The 293, PC3 and T47D cells were incubated with CCK8 (Dojindo, Rockville, Md.) for the final 1-3 hours and the absorbance at 450 nm (OD450) was determined on a Flexstation3 (Molecular Devices, Sunnyvale, Calif.). MCF7 cells were treated with Hoechst 33342 nuclear stain while being fixed with 4% formaldehyde. Images were acquired on the ImageXpress micro XL (Molecular Devices, Sunnyvale, Calif.) and nuclear counts were determined via Columbus image analysis software (Perkin Elmer, Shelton, Conn.). Background OD450 values (PC3, 293, and T47D) or nuclear counts (MCF7) from digitonin (40 nM) treated cells was subtracted from all wells and viability was expressed as a percentage of the untreated controls. IC50 values were determined from a four-parameter logistic equation over a 10-point response curve (GraphPad Prism).

Assay [1] concerns MCF7/hPRLR (MCF7/PRLR) cells. Described as above. In kind it is cell-based, human.
From the text: as §2, §3

Another assay has as its system T47D cells. Put plainly: In vitro cell viability (cell kill) assay, CCK8. It is filed as cell-based, human. The settings on record: T47D, Table 19; for pIC50: read-out: IC50. As to the method: as §3
For a further assay, the system named is MCF7/PRLR tumors. Put plainly: MCF7/PRLR breast cancer xenograft, tumor size and tumor growth inhibition. Conditions: NCr Nude mice, multi-dose 0.2 mg/kg. In kind it is in vivo, NCr nude mice. From the text: (§4) Briefly, 20×10^6 MCF7/PRLR cells (ATCC HTB-22 transfected with full length hPRLR as previously described) were implanted subcutaneously into the left mammary fat pad of female NCr nude mice. In other studies, 10×10^6 PC3/PRLR (ATCC CRL-1435 transfected with full length hPRLR as previously described) were implanted subcutaneously into the left flank of male SCID mice. Additionally, 10×10^6 parental T47D (ATCC HTB-133) or 7.5×10^10 T47D #11 cells (ATCC HTB-133 serially passaged in vivo as described below) were subcutaneously implanted into the left flank of female CB17 SCID mice. All mice were obtained from Taconic (Hudson, N.Y.). Each bolus of cells was supplemented with a 90-day estrogen release pellet (1.7 mg/pellet; Innovative Research America, Sarasota Fla.). […] Control reagents included PBS vehicle, free methyl-disulfide DM1 (DM1-SMe) and isotype Control 1-DM1.
(§5) In multi-dose studies, mice were dosed once a week for a total of three weeks with tumor volumes and body weights being monitored twice weekly throughout the study. Test ADCs were dosed at 5 and/or 15 mg/kg in the multi-dose studies. In single-dose studies, mice received a single dose of test ADC, and tumor volumes and body weights were monitored twice weekly throughout the study. Test ADCs were dosed at 1, 2.5, 5, and 15 mg/kg in the single-dose studies. Average tumor size as well as tumor growth inhibition relative to the vehicle treated group were calculated for each group. Tumors were measured with calipers twice a week until the average size of the vehicle group reached 1000 mm^3. Tumor size was calculated using the formula (length×width^2)/2. Tumor growth inhibition was calculated according to the following formula: (1−((Tfinal−Tinitial)/(Cfinal−Cinitial)))*100, where T (treated group) and C (control group) represent the mean tumor mass on the day the vehicle group reached 1000 mm^3. […] Results are summarized in Tables 21-25 (multi-dose) and Table 26 (single dose). (NT=not tested in the particular experiment shown).

The test system of a further assay is PC3/PRLR tumors. Put plainly: PC3/PRLR xenograft, tumor size and tumor growth inhibition. It is filed as in vivo, SCID mice. The settings on record: SCID mice, multi-dose 0.2 mg/kg.
From the text: as §4, §5

The subject of a further assay is T47D#11 tumors. It is filed as in vivo, CB17 SCID mice. Conditions: mouse, in vivo, 0.2 mg/kg.
From the text: as §4, §5

Setting [2] is: MCF7/PRLR tumors TRIAL #1, Day 52.
Setting [3] is: MCF7/PRLR tumors TRIAL #2, Day 63.
The mark [4] stands for this setting: PC3/PRLR tumors TRIAL #1, Day 63.
Where [5] appears, read: PC3/PRLR tumors TRIAL #2, Day 55.

pIC50: −log10 of the molar value. Square brackets hold non-standard residues; d marks the D form. Peptide text beside a SMILES is read from it. * marks the point of attachment. Dolaproine = CO[C@@H]([C@@H]1CCCN1)[C@@H](C)C(=O)O; Dil = CC[C@H](C)[C@H](NC)[C@@H](CC(=O)O)OC; X1 = C[C@@H](N*)[C@@H](O)c1ccccc1; NMeV = CN[C@H](C(=O)O)C(C)C

Turning to `CC(=O)O[C@H]1C(=O)[C@@]2(C)[C@H]([C@H](OC(=O)c3ccccc3)[C@]3(O)C[C@H](OC(=O)[C@H](O)[C@@H](NC(=O)c4ccccc4)c4ccccc4)C(C)=C1C3(C)C)[C@]1(OC(C)=O)CO[C@@H]1C[C@@H]2O` [paclitaxel, reference compound], the “tumor growth” value in the assay with TM00107 PDX tumors is listed as “did not have an effect on tumor growth”.

In the case of `COc1cc2cc(c1Cl)N(C)C(=O)C[C@H](OC(=O)[C@H](C)N(C)C(=O)CCSSC)[C@]1(C)O[C@H]1[C@H](C)[C@@H]1C[C@@](O)(NC(=O)O1)[C@H](OC)/C=C/C=C(\C)C2` [DM1-SMe, reference compound], the “% Kill” value worked out at 95% with HEK293 (293) cells; 90% in the assay with PC3 cells; 70% with PC3/hPRLR cells; 80% with MCF7 (MCF7/ATCC) cells (Table 18); 80% in the assay on MCF7 (MCF7/ATCC) cells (Table 20); 86% in assay [1] (Table 18). Moreover, the results for the “% Kill” value (in assay [1] (Table 20); with T47D cells) were 80% and 100%, respectively. Besides, the pIC50 (usually the negative decadic logarithm of the IC50, by convention in mol/L) with HEK293 (293) cells was 8.92; with PC3 cells, 9.30; in the assay on PC3/hPRLR cells it was 9.00; with MCF7 (MCF7/ATCC) cells (Table 18) it was 8.52; in the assay with MCF7 (MCF7/ATCC) cells (Table 20), 8.89; in assay [1] (Table 18), 8.72. Further, the figures for the pIC50 (in [1] (Table 20); in the assay with T47D cells) were 9.10 and 8.82, respectively. Also, the “Average Tumor Growth Inhibition (%)” value was 57% in the assay with MCF7/PRLR tumors (setting [2]); −33% in the assay on MCF7/PRLR tumors (setting [3]); −5% in the assay with PC3/PRLR tumors (setting [4]); 7% with PC3/PRLR tumors (setting [5]); −19% with T47D#11 tumors. In addition, the “Final Tumor size mm^3 (mean ± SEM)” value with MCF7/PRLR tumors (setting [2]) was 625 ± 141 mm^3; in the assay on MCF7/PRLR tumors (setting [3]) it was 1080 ± 451 mm^3; in the assay on PC3/PRLR tumors (setting [4]) it was 1361 ± 120 mm^3; in the assay with PC3/PRLR tumors (setting [5]), 1147 ± 59 mm^3; in the assay on T47D#11 tumors, 1433 ± 23 mm^3.

On to `CC[C@H](C)[C@@H]([C@@H](CC(=O)N1CCC[C@H]1[C@H](OC)[C@@H](C)C(=O)N[C@H](C)[C@@H](O)c1ccccc1)OC)N(C)C(=O)[C@@H](NC(=O)[C@@H](NC)C(C)C)C(C)C` [Free MMAE] (H-[NMeV]V[Dil][Dolaproine]-X1), for which the “% Kill” value in the assay with HEK293 (293) cells amounted to 100%; in the assay on PC3 cells, 90%; in the assay on PC3/hPRLR cells, 77%; with MCF7 (MCF7/ATCC) cells (Table 18), 83%; with MCF7 (MCF7/ATCC) cells (Table 20), 80%; in assay [1] (Table 18), 95%. The results for the “% Kill” value (in assay [1] (Table 20); in the assay with T47D cells) were 95% and 100%, respectively. In addition, the pIC50 in the assay on HEK293 (293) cells is 9.05; in the assay on PC3 cells, 8.85; in the assay on PC3/hPRLR cells it was 9.00; with MCF7 (MCF7/ATCC) cells (Table 18), 8.62; in the assay with MCF7 (MCF7/ATCC) cells (Table 20) it was 8.62; in [1] (Table 18), 8.82. In addition, the pIC50 was 8.82 in assay [1] (Table 20) and 9.00 with T47D cells.

(Values after patent publication US10925971B2, “Methods of treating PRLR positive breast cancer” (Regeneron Pharmaceuticals, Inc., priority 2016, dated 2021).)
